Assay results reported in patent publication US20210207086A1, “NE[…], INTERNAL AGENT, CULTURE MEDIUM ADDITIVE, CELL DILUENT ADDITIVE, CULTURE MEDIUM, AND CELL DILUENT” (LAIMU CORPORATION, priority 2018, published 2021).

Tests used:
Type in all cases: cell-based, rat
[1] = tested on: PC12 cells; assay: Bt2cAMP-induced neurite formation-promoting effect in PC12 cells; settings: 0.5 mM Bt2cAMP; for neurite formation ratio / neurite formation-promoting effect: compound 0.05-5 μM, FIGS. 1 and 2; for neurite formation-promoting effect compared between compounds: comparison with β-sitosterol or campesterol
Experimental: Using rat adrenal medullary pheochromocytoma-derived PC12 cells (obtained from RIKEN BRC) as a neurodifferentiative model, β-sitosterol, stigmasterol and campesterol were evaluated in terms of the Bt2cAMP (dibutyryladenosine 3′,5′-cyclic monophosphate)-induced neurite formation-promoting effect thereof.
First, PC12 cells were floated on an RPMI-1640 medium (from Sigma Aldrich Corporation) containing 10% equine serum (inactivated), 5% bovine fetal serum (inactivated), 100 U/mL of penicillin G and 100 μg/mL of streptomycin, and well suspended therein so as to be single cells. The suspension of PC 12 cells were sowed on a collagen-coated 96-well plate in an amount of […] cells/90 μL/well, and incubated in a 5% CO2 vapor phase at 37° C. for 24 hours. After incubation, a Dulbecco PBS(−) (Dulbecco phosphate buffer physiological saline water not containing Ca and Mg) added with Bt2cAMP at a concentration of 10 mM, RPMI-1640 medium added with β-sitosterol at a different concentration, or RPMI-1640 medium not added with β-sitosterol was added to the culture medium in each well in an amount of 5 μL each, and further incubated for 24 hours. At that time, the final concentration of each reagent added to the medium in each well was 0.5 mM with no exception for Bt2cAMP, and was 0 μM, 0.05 μM, 0.1 μM, 0.5 μM, 1 μM or 5 μM for β-sitosterol. After incubation, the culture medium was removed from each well, and 1% glutaraldehyde-containing phosphate buffer (0.1 M, pH 7.2) was dispensed in each well in an amount of 100 μL/well, and then left as such for 20 minutes to fix the cells. Subsequently, the glutaraldehyde-containing phosphate buffer was removed from each well, then a Giemsa stain fluid was dispensed in an amount of 100 μL/well, and left as such for 2 to 3 minutes for staining. After staining, the Giemsa stain fluid was removed from each well, and the stained sample in each well was washed twice with ultra-pure water, and then dried.
The number of the positive cells relative to the total number of cells (the total number of cells judged to be positive or negative) was calculated as percentage to be a neurite formation ratio. Here, for positive or negative judgement, 300 to 400 cells/well were observed.
PC12 cells were incubated according to the same method as above except that stigmasterol or campesterol, or a comparative compound of cholesterol or progesterone was used in place of β-sitosterol, and the neurite formation ratio in each case was calculated.
Graphs were drawn by plotting the neurite formation ratio relative to the concentration of β-sitosterol, campesterol or cholesterol added to the culture medium of PC 12 cells, and shown in FIG. 1. Graphs were drawn by plotting the neurite formation ratio relative to the concentration of β-sitosterol, stigmasterol or progesterone added to the culture medium of PC 12 cells, and shown in FIG. 2. In FIGS. 1 and 2, the horizontal axis is a logarithmic scale. The neurite formation ratio is shown as SD, and SD is a standard deviation in the three tests carried out in the same manner. “*” indicates p<0.05, and “**” indicates p<0.01. The same shall apply to the expression of the neurite formation ratio in FIG. 3, as measured in the following experiment (b).

[2] = tested on: PC12 cells; assay: Cell toxicity test (Calcein-AM, number of living PC12 cells); settings: 0.5 mM Bt2cAMP, β-sitosterol 0.05-5 μM, 24 hours; FIG. 4
Experimental: For confirming that the neurite formation-promoting effect of each compound recognized in the above-mentioned evaluations (a) and (b) is not caused by stress (cell toxicity) given to cells, the number of living PC12 cells incubated in a culture medium added with Bt2cAMP and β-sitosterol was evaluated using Calcein-AM (from Dojindo Molecular Technologies, Inc.). Calcein-AM is a cell membrane-permeable compound, and when taken in living cells, it is hydrolyzed with esterase to release calcein. […] Accordingly, after a group of cells were processed with Calcein-AM so as to make Calcein-AM taken by the living cells, and then the cells were disrupted to measure the fluorescence intensity by calcein, whereby the number of the living cells in the group of cells can be known. […]
The fluorescence intensity of the sample in each well processed as above was measured at an excitation wavelength of 485 nm and a detection wavelength of 527 nm. The data of the measured fluorescence intensity were plotted relative to the concentration of β-sitosterol added to the culture medium of PC12 cells, and the resultant graph is shown in FIG. 4. […] The fluorescence intensity is a relative value based on the actual value of the fluorescence intensity, 100%, measured in the system not added with β-sitosterol, and is shown as ±DS. […]

[3] = tested on: PC12 cells; assay: NGF-inductive neural differentiation-promoting effect (neurofilament immunofluorescent staining); settings: 10 ng/mL NGF, 0.5 μM β-sitosterol, 48 hours; FIG. 5
Experimental: A neurofilament was used as a neural differentiation marker. This was stained according to an immunofluorescent staining method for evaluating the neural differentiation promoting effect of β-sitosterol.
PC12 cells were floated in an RPMI-1640 medium containing 10% equine serum (inactivated), 5% bovine fetal serum (inactivated), 100 U/mL of penicillin G and 100 μg/mL of streptomycin and well suspended therein to be single cells of 1.4×10^4 cells/mL. The suspension of PC12 cells was sown in a collagen-coated 8-well chamber slide at 5.0×10^3 cells/360 μL/well, and incubated in a 5% CO2 vapor phase at 37° C. for 24 hours. After incubation, an NGF-added Dulbecco PBS(−) (NGF solution), and a β-sitosterol-added RPMI-1640 medium (β-sitosterol solution) were added to the medium in each well in an amount 20 μL/well each, and further incubated for 48 hours. At that time, the final concentration of each reagent added to the medium in each well was 10 ng/mL for NGF, and was 0.5 μM for β-sitosterol. After incubation, the medium was removed from each well, which was then washed with PBS(−) (phosphate buffer physiological saline water (not containing Ca and Mg)), processed with a 4% formaldehyde solution dispensed in each well for 30 minutes, and thereafter washed three times with PBS(−) for 3 minutes. […]

[4] = tested on: PC12 cells; assay: NGF-induced neurite formation-promoting effect in PC12 cells; settings: 10 ng/mL NGF, β-sitosterol 0.05-5 μM, 48 hours; FIG. 3
Experimental: Here, NGF (nerve growth factor) differing from Bt2cAMP in point of signaling pathways was used as an inducing agent for neurite formation to evaluate the NGF-induced neurite formation-promoting effect of β-sitosterol.
Specifically, PC12 cells were incubated according to the same method as above except that an NGF-added Dulbecco PBS(−) was used in place of the Bt2cAMP-added Dulbecco PBS(−) and the incubation time for the PC12 cells after addition of NGF and β-sitosterol thereto was 48 hours, and the neurite formation ratio was calculated. The final concentration of each reagent added to the culture medium of PC12 cells in each well was 10 ng/mL with no exception for NGF, and was 0 μM, 0.05 μM, 0.1 μM, 0.5 μM, 1 μM or 5 μM for β-sitosterol. A graph was drawn by plotting the neurite formation ratio relative to the concentration of β-sitosterol added to the culture medium of PC 12 cells, and shown in FIG. 3.

| SMILES | neurite formation ratio / neurite formation-promoting effect ([1]; 24 hours) | neurite formation-promoting effect compared between compounds [1] | also measured |
| --- | --- | --- | --- |
| CC[C@H](/C=C/[C@@H](C)C1CCC2C3CC=C4C[C@@H](O)CC[C@]4(C)C3CC[C@@]21C)C(C)C (stereo partly drawn) [stigmasterol] | significantly increased | no difference in the neurite formation-promoting effect | – |
| CC[C@H](CC[C@@H](C)C1CCC2C3CC=C4C[C@@H](O)CC[C@]4(C)C3CC[C@@]21C)C(C)C (stereo partly drawn) [β-sitosterol] | significantly increased | stronger neurite formation-promoting effect than the system added with campesterol | fluorescence intensity (calcein), relative to system not added with β-sitosterol [2]: changed little; number of living cells [2]: does not decrease; neurofilaments (bright spots in FITC fluorescently-stained image) versus NGF alone [3]: larger number of neurofilaments appeared; neurite formation ratio [4]: significantly increased |
| CC(=O)[C@H]1CC[C@H]2[C@@H]3CCC4=CC(=O)CC[C@]4(C)[C@H]3CC[C@]12C [Progesterone, progesterone, reference compound] | extremely weak | – | neurite formation ratio ([1]; compound added in an amount of 0.1 μM, 24 hours, FIG. 2): recognized to increase the neurite formation ratio |
| CC(C)[C@H](C)CC[C@@H](C)[C@H]1CC[C@H]2[C@@H]3CC=C4C[C@@H](O)CC[C@]4(C)[C@H]3CC[C@]12C [campesterol] | significantly increased | – | – |
| CC(C)CCC[C@@H](C)[C@H]1CC[C@H]2[C@@H]3CC=C4C[C@@H](O)CC[C@]4(C)[C@H]3CC[C@]12C [cholesterol, reference compound] | not recognized to have a neurite formation-promoting effect | – | – |
